Data as given in patent US11021521B2, “Pore-modified gram-negative bacteria and uses thereof” (priority 2015, dated 2021).
Values after ≈ are worked out from the molar mass of the structure shown. Read-outs that look alike come from different tables or passages of the source.

Tests used:
Assay in all cases: microbe, parasite or virus in culture
Assay type in all cases: cell-based
[1] = test system: B. thailandensis BtΔ2-RHA-BtPore (efflux-deficient, hyperporinated)
[2] = test system: P. aeruginosa PaΔ3-LAC (efflux-deficient); settings: Pseudomonas aeruginosa, at least three independent measurements, read-out: MIC
[3] = test system: A. baumannii AbΔ3-ARA-EcPore (efflux-deficient, hyperporinated); settings: AbΔ3-ARA-EcPore, at least three independent measurements
[4] = test system: B. cepacia Bc-RHA-BtPore (hyperporinated); settings: for MIC: Bc-RHA-BtPore; for Fold decrease of MIC (potentiation) by hyperporination: Bc: Bc-RHA-BtPore vs parent
[5] = test system: P. aeruginosa PAO1-LAC-EcPore (hyperporinated); settings: for MIC: Pseudomonas aeruginosa, PAO1-LAC-EcPore, at least three independent measurements, read-out: MIC; for Fold decrease of MIC (potentiation) by hyperporination: Pae: PAO1-LAC-EcPore vs parent
[6] = test system: A. baumannii Ab-ARA (wild type, empty cassette); settings: at least three independent measurements
[7] = test system: B. thailandensis Bt-RHA (wild type, empty cassette)
[8] = test system: B. thailandensis BtΔ2-RHA (efflux-deficient)
[9] = test system: B. thailandensis Bt-RHA-BtPore (hyperporinated)
[10] = test system: B. cepacia Bc-RHA (wild type, empty cassette)
[11] = test system: A. baumannii Ab-ARA-EcPore (hyperporinated); settings: for MIC: Ab-ARA-EcPore, at least three independent measurements; for Fold decrease of MIC (potentiation) by hyperporination: Abau: Ab-ARA-EcPore vs parent
[12] = test system: P. aeruginosa PaΔ3-LAC-EcPore (efflux-deficient, hyperporinated); settings: Pseudomonas aeruginosa; PaΔ3-LAC-EcPore; at least three independent measurements; read-out: MIC
[13] = test system: P. aeruginosa PAO1-LAC (wild type, empty cassette); settings: at least three independent measurements
[14] = test system: A. baumannii AbΔ3-ARA (efflux-deficient); settings: AbΔ3-ARA, at least three independent measurements
[15] = Acinetobacter baumannii, read-out: MIC
[16] = Burkholderia cepacia, read-out: MIC

For `CC[C@H]1OC(=O)[C@H](C)[C@@H](O[C@H]2C[C@@](C)(OC)[C@@H](O)[C@H](C)O2)[C@H](C)[C@@H](O[C@@H]2O[C@H](C)C[C@H](N(C)C)[C@H]2O)[C@](C)(O)C[C@@H](C)C(=O)[C@H](C)[C@@H](O)[C@]1(C)O` [Erythromycin], the MIC ([1]; Burkholderia thailandensis) was 0.5 µg/mL (≈ 0.681 µM), the MIC [2] was 16 µg/mL (≈ 21.8 µM) and the MIC [3, 15] was 0.08 µg/mL (≈ 0.109 µM). For the same compound, the MIC [4, 16] was 8 to 16 µg/mL (≈ 10.9 to 21.8 µM), the MIC [5] was 2 µg/mL (≈ 2.73 µM) and the MIC [6, 15] was 5 µg/mL (≈ 6.81 µM). It also gave an MIC ([7]; Burkholderia thailandensis) of 512 µg/mL (≈ 698 µM) and an MIC ([8]; Burkholderia thailandensis) of 1 µg/mL (≈ 1.36 µM).

For `NC[C@H]1O[C@H](O[C@H]2[C@H](O)[C@@H](O[C@H]3O[C@H](CO)[C@@H](O)[C@H](N)[C@H]3O)[C@H](N)C[C@@H]2N)[C@H](O)[C@@H](O)[C@@H]1O` [Kanamycin], the MIC ([1]; Burkholderia thailandensis) was 2 µg/mL (≈ 4.13 µM), the MIC ([9]; Burkholderia thailandensis) was 64 µg/mL (≈ 132 µM) and the MIC [10, 16] was 64 µg/mL (≈ 132 µM). It also gave an MIC [4, 16] of 4 to 8 µg/mL (≈ 8.26 to 16.5 µM), an MIC ([7]; Burkholderia thailandensis) greater than 64 µg/mL and an MIC ([8]; Burkholderia thailandensis) of 4 µg/mL (≈ 8.26 µM).

`C[C@H]1COc2c(N3CCN(C)CC3)c(F)cc3c(=O)c(C(=O)O)cn1c23` [Levofloxacin] gave an MIC [11, 15] of 0.125 µg/mL (≈ 0.346 µM), an MIC ([9]; Burkholderia thailandensis) of 1 µg/mL (≈ 2.77 µM) and an MIC [10, 16] of 2 µg/mL (≈ 5.53 µM). It also gave an MIC [4, 16] of 0.06 µg/mL (≈ 0.166 µM), an MIC [5] of 0.063 µg/mL (≈ 0.174 µM) and an MIC [6, 15] of 0.125 µg/mL (≈ 0.346 µM). It also gave an MIC ([7]; Burkholderia thailandensis) of 2 µg/mL (≈ 5.53 µM).

`C[C@@H](O)[C@H]1C(=O)N2C(C(=O)O)=C(S[C@@H]3CN[C@H](C(=O)N(C)C)C3)[C@H](C)[C@H]12` [Meropenem] showed an MIC ([1]; Burkholderia thailandensis) of 0.03 µg/mL (≈ 0.0782 µM), an MIC [2] of 0.125 µg/mL (≈ 0.326 µM) and an MIC [12] of 0.03 µg/mL (≈ 0.0782 µM). For the same compound, the “Fold decrease of MIC (potentiation) by hyperporination” value (“Fold decrease of MIC (potentiation)” for short) [11] was 2-4 fold, the MIC [11, 15] was 0.063 µg/mL (≈ 0.164 µM) and the MIC ([9]; Burkholderia thailandensis) was 1 µg/mL (≈ 2.61 µM). The MIC [10, 16] was greater than 4 µg/mL, the MIC [3, 15] was 0.063 µg/mL (≈ 0.164 µM) and the “Fold decrease of MIC (potentiation)” value [4] was greater than 32 fold. For the same compound, the MIC [4, 16] was 0.125 µg/mL (≈ 0.326 µM), the “Fold decrease of MIC (potentiation)” value [5] was 2-4 fold and the MIC [5] was 0.25 µg/mL (≈ 0.652 µM). It also gave an MIC ([13]; Pseudomonas aeruginosa, read-out: MIC) of 0.5 µg/mL (≈ 1.3 µM), an MIC [6, 15] of 0.25 µg/mL (≈ 0.652 µM) and an MIC ([7]; Burkholderia thailandensis) of 1 µg/mL (≈ 2.61 µM). The MIC ([8]; Burkholderia thailandensis) was 0.25 µg/mL (≈ 0.652 µM) and the MIC [14, 15] was 0.125 µg/mL (≈ 0.326 µM).

In the case of `CCn1cc(C(=O)O)c(=O)c2ccc(C)nc21` [Nalidixic acid], the MIC ([1]; Burkholderia thailandensis) is reported as 1.5 µg/mL (≈ 6.46 µM), the MIC [2] is reported as 8 µg/mL (≈ 34.4 µM) and the MIC [12] is reported as 2 µg/mL (≈ 8.61 µM). The MIC [11, 15] was 1.5 µg/mL (≈ 6.46 µM), the MIC ([9]; Burkholderia thailandensis) was 24 µg/mL (≈ 103 µM) and the MIC [10, 16] was 24 µg/mL (≈ 103 µM). It also gave an MIC [3, 15] of 0.75 µg/mL (≈ 3.23 µM), an MIC [4, 16] of 3 µg/mL (≈ 12.9 µM) and an MIC [5] of 32 µg/mL (≈ 138 µM). It also gave an MIC [6, 15] of 3 µg/mL (≈ 12.9 µM), an MIC ([7]; Burkholderia thailandensis) of 48 µg/mL (≈ 207 µM) and an MIC ([8]; Burkholderia thailandensis) of 12 µg/mL (≈ 51.7 µM). The MIC [14, 15] was 1.5 µg/mL (≈ 6.46 µM).

`CO[C@@H]1[C@@H](OC(N)=O)[C@@H](O)[C@H](Oc2ccc3c(O)c(NC(=O)c4ccc(O)c(CC=C(C)C)c4)c(=O)oc3c2C)OC1(C)C` [Novobiocin] gave an MIC ([1]; Burkholderia thailandensis) of 0.008 µg/mL (≈ 0.0131 µM), an MIC [2] of 32 µg/mL (≈ 52.2 µM) and an MIC [12] of 4 µg/mL (≈ 6.53 µM). The “Fold decrease of MIC (potentiation)” value [11] was 2 fold, the MIC [11, 15] was 1.56 µg/mL (≈ 2.55 µM) and the “Fold decrease of MIC (potentiation)” value [9] was 2 fold. It also gave an MIC ([9]; Burkholderia thailandensis) of 4 µg/mL (≈ 6.53 µM), an MIC [10, 16] of 8 µg/mL (≈ 13.1 µM) and an MIC [3, 15] of 0.025 µg/mL (≈ 0.0408 µM). The “Fold decrease of MIC (potentiation)” value [4] was 16-32 fold, the MIC [4, 16] was 0.125 µg/mL (≈ 0.204 µM) and the “Fold decrease of MIC (potentiation)” value [5] was 16-32 fold. It also gave an MIC [5] of 64 µg/mL (≈ 104 µM), an MIC [13] of 512 µg/mL (≈ 836 µM) and an MIC [6, 15] of 3.1 µg/mL (≈ 5.06 µM). For the same compound, the MIC ([7]; Burkholderia thailandensis) was 8 µg/mL (≈ 13.1 µM), the MIC ([8]; Burkholderia thailandensis) was 0.25 µg/mL (≈ 0.408 µM) and the MIC [14, 15] was 0.025 µg/mL (≈ 0.0408 µM).

Work on `CO[C@H]1/C=C/O[C@@]2(C)Oc3c(C)c(O)c4c(O)c(c(/C=N/N5CCN(C)CC5)c(O)c4c3C2=O)NC(=O)/C(C)=C\C=C\[C@H](C)[C@H](O)[C@@H](C)[C@@H](O)[C@@H](C)[C@H](OC(C)=O)[C@@H]1C` [Rifampin] yielded an MIC ([1]; Burkholderia thailandensis) of 0.03 µg/mL (≈ 0.0365 µM), an MIC [11, 15] of 0.5 µg/mL (≈ 0.608 µM) and an MIC ([9]; Burkholderia thailandensis) of 8 µg/mL (≈ 9.72 µM). It also gave an MIC [10, 16] of 8 µg/mL (≈ 9.72 µM), an MIC [3, 15] of 0.25 µg/mL (≈ 0.304 µM) and an MIC [4, 16] of 0.06 µg/mL (≈ 0.0729 µM). The MIC [6, 15] was 2 µg/mL (≈ 2.43 µM), the MIC ([7]; Burkholderia thailandensis) was 16 µg/mL (≈ 19.4 µM) and the MIC ([8]; Burkholderia thailandensis) was 4 µg/mL (≈ 4.86 µM). For the same compound, the MIC [14, 15] was 1 µg/mL (≈ 1.22 µM).

With `CN(C)[C@@H]1C(O)=C(C(N)=O)C(=O)[C@@]2(O)C(O)=C3C(=O)c4c(O)cccc4[C@@](C)(O)[C@H]3C[C@@H]12` [Tetracycline] the MIC ([1]; Burkholderia thailandensis) was 0.06 µg/mL (≈ 0.135 µM), the MIC [2] was 2 µg/mL (≈ 4.5 µM) and the MIC [12] was 0.125 µg/mL (≈ 0.281 µM). For the same compound, the MIC [11, 15] was 0.031 µg/mL (≈ 0.0698 µM), the MIC ([9]; Burkholderia thailandensis) was 2 µg/mL (≈ 4.5 µM) and the MIC [10, 16] was greater than 8 µg/mL. It also gave an MIC [3, 15] of 0.004 µg/mL (≈ 0.009 µM), an MIC [4, 16] of 8 µg/mL (≈ 18 µM) and an MIC [5] of 0.5 µg/mL (≈ 1.13 µM). For the same compound, the MIC [6, 15] was 0.125 µg/mL (≈ 0.281 µM), the MIC ([7]; Burkholderia thailandensis) was 2 µg/mL (≈ 4.5 µM) and the MIC ([8]; Burkholderia thailandensis) was 0.125 µg/mL (≈ 0.281 µM). It also gave an MIC [14, 15] of 0.008 µg/mL (≈ 0.018 µM).

In the case of Gentamicin, the MIC [1] is reported as 2 µg/mL, the MIC [11] is reported as 4 µg/mL and the MIC [9] is reported as greater than 64 µg/mL. It also gave an MIC [10] of 128 µg/mL, an MIC [3] of 8 µg/mL and an MIC [4] of 16 µg/mL. The MIC [6] was 4 µg/mL, the MIC [7] was greater than 64 µg/mL and the MIC [8] was 4 µg/mL. It also gave an MIC [14] of 8 µg/mL.
